The data set is described as follows: Evaluation of solubility in organic solvents (visual observation of complete dissolution). Format: physicochemical. Here is the method: [Evaluation of Solubility]
The evaluation of the solubility of the synthesized compound was conducted by the following method.
About 2-3 mg of the compound was precisely weighed, and each solvent was added to the compound such that a predetermined concentration of the solute (0.5 wt %, 0.3 wt %, 0.2 wt %, 0.1 wt %, 0.05 wt %, or 0.03 wt %) was reached. The resultant mixture was stirred for 30 minutes at a predetermined temperature, and then it was evaluated by visual appearance observation whether or not the solute (synthesized compound) was completely dissolved in the solvent, which was the result of the evaluation of the solubility. As the solvent, chloroform (boiling point 61° C.), toluene (boiling point 111° C.), xylene (boiling point 144° C.), mesitylene (boiling point 165° C.), chlorobenzene (boiling point 130° C.), para-chlorotoluene (boiling point 162° C.), and ortho-dichlorobenzene (boiling point 181° C.) were used.

Some results are limits rather than exact numbers.

As for `CCCCCCCCCCCCc1cc(-c2ccc(-c3c4c(c(-c5ccc(-c6ccc(C#N)c(CCCCCCCCCCCC)c6)s5)c5nsnc35)N=S=N4)s2)ccc1C#N` [Compound (C17), 4,8-bis[5-(4-cyano-3-dodecylphenyl)thiophene-2-yl]benzo[1,2-c:4,5-c′]bis[1,2,5]thiadiazole], the “solubility (solute concentration completely dissolved)” value (from here on “solubility”) is, setting by setting: (chlorobenzene, 80° C.) ≥ 0.3 wt %; (chloroform, 60° C.) ≥ 0.2 wt %; (ortho-dichlorobenzene, 60° C.) ≥ 0.3 wt %; (para-chlorotoluene, 80° C.) ≥ 0.3 wt %; (xylene, 100° C.) ≥ 0.3 wt %.

As to `CCCCCCCCCCCCCCCCc1cc(-c2ccc(-c3c4c(c(-c5ccc(-c6ccc(C#N)c(CCCCCCCCCCCCCCCC)c6)s5)c5nsnc35)N=S=N4)s2)ccc1C#N` [Compound (C19), 4,8-bis[5-(4-cyano-3-hexadecylphenyl)thiophene-2-yl]benzo[1,2-c:4,5-c′]bis[1,2,5]thiadiazole], the “solubility” value by setting is: (1-methylnaphthalene, 25° C. (room temperature)) ≥ 0.3 wt %; (chlorobenzene, 80° C.) ≥ 0.3 wt %; (chloroform, 60° C.) ≥ 0.2 wt %; (ortho-dichlorobenzene, 80° C.) ≥ 0.3 wt %.

With `FC(F)(F)Sc1cccc(-c2ccc(-c3c4c(c(-c5ccc(-c6cccc(SC(F)(F)F)c6)s5)c5nsnc35)N=S=N4)s2)c1` [Compound (C6), 4,8-bis[5-(3-((trifluoromethyl)thio)phenyl)thiophene-2-yl]benzo[1,2-c:4,5-c′]bis[1,2,5]thiadiazole], the “solubility” value runs as follows: (chlorobenzene, 80° C.) ≥ 0.1 wt %; (chlorobenzene, 130° C.) ≥ 0.5 wt %; (mesitylene, 80° C.) ≥ 0.1 wt %; (mesitylene, 130° C.) ≥ 0.3 wt %; (ortho-dichlorobenzene, 80° C.) ≥ 0.1 wt %; (ortho-dichlorobenzene, 130° C.) ≥ 0.5 wt %. The “solubility” value (toluene, 80° C.) is listed as ≥ 0.1 wt %.

With `CCCCCCCCCCCCc1cc(-c2ccc(-c3c4c(c(-c5ccc(-c6ccc(C(F)(F)F)c(CCCCCCCCCCCC)c6)s5)c5nsnc35)N=S=N4)s2)ccc1C(F)(F)F` [Compound (C27), 4,8-bis[5-(3-dodecyl-4-(trifluoromethyl)phenyl)thiophene-2-yl]benzo[1,2-c:4,5-c′]bis[1,2,5]thiadiazole], the “solubility” value (1-methylnaphthalene, 60° C.) is ≥ 0.3 wt %; the “solubility” value (chloroform, 60° C.) is recorded as ≥ 0.1 wt %; the “solubility” value (mesitylene, 60° C.) is ≥ 0.3 wt %; the “solubility” value (ortho-dichlorobenzene, 60° C.) is ≥ 0.3 wt %; the “solubility” value (toluene, 60° C.) is reported as ≥ 0.3 wt %.

Turning to `CCCCCCc1cc(-c2ccc(-c3c4c(c(-c5ccc(-c6ccc(C#N)c(CCCCCC)c6)s5)c5nsnc35)N=S=N4)s2)ccc1C#N` [Compound (C8), 4,8-bis[5-(4-cyano-3-hexylphenyl)thiophene-2-yl]benzo[1,2-c:4,5-c′]bis[1,2,5]thiadiazole], the “solubility” value was ≥ 0.03 wt % (chlorobenzene, 25° C.); ≥ 0.05 wt % (chloroform, 60° C.); ≥ 0.2 wt % (chloroform, 80° C.); ≥ 0.03 wt % (ortho-dichlorobenzene, 25° C.); ≥ 0.3 wt % (para-chlorotoluene, 100° C.).

For the compound `CCCCCCCCCCc1cc(-c2ccc(-c3c4c(c(-c5ccc(-c6ccc(C#N)c(CCCCCCCCCC)c6)s5)c5nsnc35)N=S=N4)s2)ccc1C#N` [Compound (C16), 4,8-bis[5-(4-cyano-3-decylphenyl)thiophene-2-yl]benzo[1,2-c:4,5-c′]bis[1,2,5]thiadiazole], the “solubility” value (chlorobenzene, 80° C.) is ≥ 0.3 wt %; the “solubility” value (chloroform, 60° C.) is reported as ≥ 0.2 wt %; the “solubility” value (ortho-dichlorobenzene, 80° C.) is ≥ 0.3 wt %; the “solubility” value (para-chlorotoluene, 80° C.) is reported as ≥ 0.3 wt %.

With `CCCCCCCCCCCCCCc1cc(-c2ccc(-c3c4c(c(-c5ccc(-c6ccc(C#N)c(CCCCCCCCCCCCCC)c6)s5)c5nsnc35)N=S=N4)s2)ccc1C#N` [Compound (C18), 4,8-bis[5-(4-cyano-3-tetradecylphenyl)thiophene-2-yl]benzo[1,2-c:4,5-c′]bis[1,2,5]thiadiazole], the “solubility” value is, setting by setting: (1-methylnaphthalene, 80° C.) ≥ 0.3 wt %; (chlorobenzene, 100° C.) ≥ 0.3 wt %; (chloroform, 60° C.) ≥ 0.2 wt %; (ortho-dichlorobenzene, 80° C.) ≥ 0.3 wt %.

Values taken from US9978954B2, “Benzobis (thiadiazole) derivative, ink comprising same, and organic electronic device comprising same” (UBE INDUSTRIES, LTD., priority 2013, dated 2018).
